Test results from PubChem BioAssay (NCI).
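Each compound was tested at five concentrations against cells in 96-well plates for 48 hours. The concentration for 50% growth inhibition is given as GI50. TGI marks complete inhibition of growth.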

Assays:
Assay in all cases: NCI anticancer screen, dose series, 48 h
MDA-N = test system: MDA-N
DMS 114 small cell lung = test system: DMS 114 small cell lung
KM20L2 colon = test system: KM20L2 colon
LXFL 529 NSCLC = test system: LXFL 529 NSCLC
HOP-18 NSCLC = test system: HOP-18 NSCLC
DLD-1 colon = test system: DLD-1 colon
RXF-631 renal = test system: RXF-631 renal
DMS 273 small cell lung = test system: DMS 273 small cell lung
XF 498 CNS = test system: XF 498 CNS

Row | SMILES | TGI (DMS 114 small cell lung) [µM] | TGI (KM20L2 colon) [µM] | TGI (LXFL 529 NSCLC) [µM] | TGI (HOP-18 NSCLC) [µM] | TGI (DLD-1 colon) [µM] | TGI (RXF-631 renal) [µM] | TGI (DMS 273 small cell lung) [µM] | TGI (XF 498 CNS) [µM] | further results
1 | NC(N)=N/N=C/c1cc(Cl)cc(Cl)c1O |  |  |  |  |  |  |  |  | TGI (MDA-N): > 100 µM
2 | CN=NN(C)C(=O)NC | > 100 | > 100 | > 100 | > 100 | > 100 |  |  |  | 
3 | COc1ccc(C(=O)C(CO)Oc2ccccc2OC)cc1OC (stereo not given) | > 100 | > 100 | > 100 |  | > 100 | > 100 | > 100 | > 100 | 
4 | COC(=O)/C=C/C1C(C(=O)OC)C2(C(=O)OC)CCC1(C(=O)OC)N2 (stereo not given) |  | > 100 | > 100 | > 100 | > 100 | > 100 | > 100 | > 100 | 
5 | O=C(O)c1cc(O)c2c(c1)C(C1c3cc(C(=O)O)cc(O)c3C(=O)c3c(OC4OC(CO)C(O)C(O)C4O)cccc31)c1cccc(OC3OC(CO)C(O)C(O)C3O)c1C2=O (stereo not given) |  |  |  |  |  |  |  |  | GI50 (MDA-N): > 100 µM; TGI (MDA-N): > 100 µM
6 | CC1=C(C(=O)Nc2c(C)cccc2C)C(c2ccccc2Cl)C(C(=O)Nc2c(C)cccc2C)=C(C)N1 | > 100 | > 100 | > 100 |  | > 100 |  | > 100 | > 100 | 
7 | N#C/C(=C\c1ccc(O)c(O)c1)C(N)=O | > 100 | > 100 | > 100 |  | > 100 | > 100 | > 100 |  | 
8 | CCCCCCCCCc1cc(=O)c2c(O)cccc2o1 | > 100 |  | > 100 | > 100 | > 100 | > 100 | > 100 | > 100 | 
9 | O=C(CSc1nnc(-c2ccccc2NC(=O)C(F)(F)F)c(=O)[nH]1)NC(=O)Nc1ccccc1 |  |  | > 100 |  | 44.7 |  | > 100 | > 100 | 
10 | CC(=O)OCC1OC([S-])C(OC(C)=O)C(OC(C)=O)C1OC(C)=O.CC[PH+](CC)CC.CC[PH+](CC)CC.[Au].[Au] (stereo not given) |  | 2.2 | 0.322 | 0.694 | 0.49 |  | 2.11 | 0.449 | GI50 (KM20L2 colon): 0.792 µM; GI50 (LXFL 529 NSCLC): 0.153 µM; GI50 (HOP-18 NSCLC): 0.253 µM; GI50 (DLD-1 colon): 0.174 µM; GI50 (DMS 273 small cell lung): 0.453 µM; GI50 (XF 498 CNS): 0.181 µM
11 | CCOC(=O)C1N(S(=O)(=O)c2ccc(C)cc2)CCC12C(c1ccc(OC)cc1)NC1CCCCC12 (stereo not given) | > 100 | > 100 | > 100 |  | > 100 | > 100 | > 100 |  | 
12 | CCOC(=O)[C@H](CCCNC(=O)OC(C)(C)C)NCc1ccc(OC)c(OC)c1 | > 100 | > 100 | > 100 | > 100 | > 100 | > 100 | > 100 | > 100 | 
13 | N#CC(/C(=N/NC(=O)C(=O)NN)C(=O)NC12CC3CC(CC(C3)C1)C2)c1ccccc1 (stereo not given) | > 100 | > 100 | > 100 | > 100 | > 100 | > 100 | > 100 |  | 
14 | CC(C)(C)N1CC2(CCCCC2)C1=O | > 100 | > 100 |  | > 100 | > 100 |  | > 100 |  | 
15 | CCCS(=O)(=O)Nc1ccc(Nc2c3ccccc3nc3ccccc23)c(OC)c1 |  |  |  |  |  |  |  |  | TGI (MDA-N): 20.2 µM
16 | COc1ccccc1/C=C/c1cnccn1 |  |  |  |  |  |  |  |  | TGI (MDA-N): > 10 µM
17 | COc1c(C)c2c(c(C)c1Cl)Oc1c(C=O)c(O)c(Cl)c(C)c1C(=O)O2 | 79.1 | 82.9 | 82.9 |  | > 100 |  | 70.5 | 22.7 | 
18 | Cc1cccc(NC(=O)/C=C/c2ccc(N(CCC#N)CCC#N)cc2C)c1 | > 100 | > 100 | > 100 |  | > 100 | > 100 | > 100 | > 100 | 

Row | SMILES | TGI (DMS 114 small cell lung) [µM] | TGI (KM20L2 colon) [µM] | TGI (LXFL 529 NSCLC) [µM] | TGI (HOP-18 NSCLC) [µM] | TGI (DLD-1 colon) [µM] | TGI (RXF-631 renal) [µM] | TGI (DMS 273 small cell lung) [µM] | TGI (XF 498 CNS) [µM] | further results
19 | O=C(/C=C/c1c(O)ccc2ccccc12)c1ccc2ccccc2c1 | > 100 | > 100 |  |  | > 100 |  | > 100 |  | 
20 | N#CC1Nc2ccccc2[C@@H](O)C1O (stereo not given in full) |  |  |  |  |  |  |  |  | TGI (MDA-N): > 100 µM
21 | O=C(CCC(=O)Nc1cccc(Cl)c1)CC(=O)c1ccc(Cl)cc1 |  | > 100 | > 100 |  |  | > 100 | > 100 | > 100 | 
22 | O=C(Nc1ccc([N+](=O)[O-])cc1)C1C(=O)C(=O)N(c2ccc([N+](=O)[O-])cc2)C1=O (stereo not given) | 35.8 | > 100 | > 100 | > 100 | > 100 | > 100 | > 100 |  | 
23 | CCOC(=O)c1[nH]c(COC(C)=O)c(CCCOC(C)=O)c1CCCOC(C)=O |  | > 100 | > 100 |  |  |  | > 100 | > 100 | 
24 | COc1ccccc1NC(=O)C1=C(C)NC(C)=C(C(=O)Nc2ccccc2OC)C1c1ccc([N+](=O)[O-])cc1 | > 100 | > 100 | > 100 | > 100 | > 100 | > 100 | > 100 | 33.7 | 
25 | CCOC(=O)CCc1c(C)c2c(OC(C)=O)cc(OC(C)=O)cc2oc1=O | 70.8 | > 100 | > 100 | > 100 | > 100 |  | > 100 |  | 
26 | O=C1CSC(Cc2nc3ccccc3[nH]2)=N1 | > 59.2 | 33.3 | > 53.8 | 65.6 | 49 |  | 35.4 | 39.9 | 
27 | O=C(O)c1c(-c2nccc3ccccc23)[nH]c(-c2ccccc2)c1S(=O)(=O)O |  |  |  |  |  |  |  |  | TGI (MDA-N): > 100 µM
28 | O/N=C\c1c(O)ccc2ccccc12 |  |  |  |  |  |  |  |  | TGI (MDA-N): > 100 µM
29 | O=C(O)c1ccccc1-c1ccccc1C(=O)Nc1ccc2c(c1)Cc1cc(F)ccc1-2 |  |  |  |  |  |  |  |  | TGI (MDA-N): 75.5 µM
30 | O=[N+]([O-])c1ccc(-n2nnc(C3=NCCCN3)c2-c2ccc(Cl)cc2)cc1 |  | > 100 | > 100 | > 100 | > 100 |  | > 100 | > 100 | 
31 | O=C(CCC/C(CC(=O)c1ccc(Br)cc1)=N\O)Nc1ccccc1 | > 100 | > 100 | > 100 | > 100 | > 100 |  |  | > 100 | 
32 | COC(=O)C12C3C4C5(C(=O)OC)C(C1C35C(=O)N(C(C)C)C(C)C)C42C(=O)N(C(C)C)C(C)C (stereo not given) | > 50 | > 50 | > 50 | > 50 | > 38.4 |  | > 50 |  | 
33 | COc1cc2c(cc1OC)C13CCN4CC5=CCOC6CC(=O)N2C1C6C5CC43O (stereo not given) |  |  |  |  |  |  |  |  | TGI (MDA-N): > 100 µM
34 | NC1CCCC[C@H]1N.N[C@@H]1CCCC[C@@H]1N.O=C(P(=O)([O-])[O-])P(=O)([O-])[O-].[Pt+4].[Pt+4] |  | > 100 | > 100 | > 100 | > 100 |  | > 100 |  | GI50 (KM20L2 colon): > 100 µM; GI50 (LXFL 529 NSCLC): > 100 µM; GI50 (HOP-18 NSCLC): 59.6 µM; GI50 (DLD-1 colon): > 100 µM; GI50 (DMS 273 small cell lung): 32.3 µM
35 | COc1cc2c(cc1OCc1ccccc1)CNCC2 | > 100 | > 100 | > 100 | > 100 | > 100 | > 100 | > 100 | > 100 | 
36 | CC(C)(C)C(=O)/C=C/c1ccc(Oc2ccccc2)cc1 |  | 40.2 | 28.9 | 34.9 | 61.4 |  |  | 28.8 | 
